Assay results taken from ChEMBL document CHEMBL2150910, “Initial Optimization of a New Series of γ-Secretase Modulators Derived from a Triterpene Glycoside” (ACS Med Chem Lett, 2012).

Columns and labels:
[1] = Inhibition of gamma-secretase-mediated amyloid beta-42 production in diluted 2B7 conditioned media after 5 hrs
[2] = Inhibition of gamma-secretase-mediated amyloid beta-40 production in diluted 2B7 conditioned media at 20 uM after 5 hrs
[3] = Inhibition of gamma-secretase-mediated amyloid beta-40 production in diluted 2B7 conditioned media at 4 uM after 5 hrs
[4] = Inhibition of gamma-secretase-mediated amyloid beta-40 production in diluted 2B7 conditioned media after 5 hrs
[5] = Inhibition of gamma-secretase-mediated amyloid beta-38 production in diluted 2B7 conditioned media after 5 hrs
[6] = Inhibition of gamma-secretase-mediated amyloid beta-37 production in diluted 2B7 conditioned media after 5 hrs
[7] = Inhibition of gamma-secretase-mediated amyloid beta-40 production in diluted 2B7 conditioned media at 0.8 uM after 5 hrs
[8] = Dissociation constant, pKa of the compound; assay type: physicochemical
[9] = Plasma concentration in CD1 mouse at 30 mg/kg, po after 24 hrs; assay type: ADME, organism-based; parameters: dose 30 mg/kg, route oral
[10] = Plasma concentration in CD1 mouse at 30 mg/kg, po after 6 hrs; assay type: ADME, organism-based; parameters: dose 30 mg/kg, route oral
[11] = Drug level in CD1 mouse brain at 30 mg/kg, po after 4 hrs; assay type: ADME, organism-based; parameters: dose 30 mg/kg, route oral; details: read-out: Drug uptake
[12] = Plasma concentration in CD1 mouse at 30 mg/kg, po after 4 hrs; assay type: ADME, organism-based; parameters: dose 30 mg/kg, route oral
[13] = AUC in CD1 mouse at 30 mg/kg, po; assay type: ADME, organism-based; parameters: dose 30 mg/kg, route oral; details: plasma
[14] = Drug level in CD1 mouse brain at 30 mg/kg, po after 8 hrs; assay type: ADME, organism-based; parameters: dose 30 mg/kg, route oral; details: read-out: Drug uptake
[15] = target: Gamma-secretase (Homo sapiens) (UniProt Q96BI3+Q9NZ42+Q8WW43+P49768+Q92542+P49810); experiment: Selectivity ratio of IC50 for gamma-secretase-mediated notch processing in human SUP-T1 cells to IC50 for gamma-secretase-mediated amyloid beta-42 production; assay type: cell-based
[16] = Drug level in CD1 mouse brain at 30 mg/kg, po after 24 hrs; assay type: ADME, organism-based; parameters: dose 30 mg/kg, route oral; details: read-out: Drug uptake
[17] = Volume of distribution in CD1 mouse at 1 mg/kg, iv; assay type: ADME, organism-based; parameters: dose 1 mg/kg, route intravenous; details: in vivo
[18] = Metabolic stability in CD1 mouse liver microsomes assessed as compound remaining at 1 uM after 60 mins in presence of NADPH; assay type: ADME, Microsome; details: read-out: Stability
[19] = Half life in CD1 mouse at 30 mg/kg, po; assay type: ADME, organism-based; parameters: dose 30 mg/kg, route oral; details: in vivo
[20] = Ratio of drug level in brain to plasma in CD1 mouse at 30 mg/kg, po; assay type: ADME, organism-based; parameters: dose 30 mg/kg, route oral; details: read-out: BPR
[21] = Oral bioavailability in CD1 mouse at 30 mg/kg; assay type: ADME, organism-based; details: in vivo
Gamma-secretase = experiment: Inhibition of gamma-secretase-mediated notch processing in human SUP-T1 cells after 1 hr by luminescent assay; assay type: cell-based
[22] = Inhibition of gamma-secretase assessed as ratio of amyloid beta-40 to amyloid beta-42 production in diluted 2B7 conditioned media after 5 hrs
[23] = Drug level in CD1 mouse brain at 30 mg/kg, po after 6 hrs; assay type: ADME, organism-based; parameters: dose 30 mg/kg, route oral; details: read-out: Drug uptake
[24] = Plasma concentration in CD1 mouse at 30 mg/kg, po after 8 hrs; assay type: ADME, organism-based; parameters: dose 30 mg/kg, route oral
[25] = Clearance in CD1 mouse at 1 mg/kg, iv; assay type: ADME, organism-based; parameters: dose 1 mg/kg, route intravenous; details: in vivo
[26] = Inhibition of gamma-secretase-mediated total amyloid beta production in diluted 2B7 conditioned media after 5 hrs
[27] = Half life in CD1 mouse at 1 mg/kg, iv; assay type: ADME, organism-based; parameters: dose 1 mg/kg, route intravenous; details: in vivo
[28] = Metabolic stability in CD1 mouse liver microsomes assessed as compound remaining at 1 uM after 60 mins in absence of NADPH; assay type: ADME, Microsome; details: read-out: Stability

CC(=O)O[C@@H]([C@H]1C[C@@H](C)[C@H]2[C@H](O1)[C@H](O)[C@@]1(C)[C@@H]3CC[C@H]4C(C)(C)[C@@H](O[C@H]5CN(CC(F)(F)F)CCO5)CC[C@@]45C[C@@]35CC[C@]21C)C(C)(C)O
IC50 [1]: 1190 nM | inhibition [2]: 47%

CCN1CCO[C@@H](O[C@H]2CC[C@]34C[C@]35CC[C@]3(C)[C@@H]6[C@H](O[C@@H]([C@H](OC(C)=O)C(C)(C)O)C[C@H]6C)[C@H](O)[C@@]3(C)[C@@H]5CC[C@H]4C2(C)C)C1
IC50 [1]: 190 nM | inhibition [3]: 42%

CC(=O)O[C@@H]([C@H]1C[C@@H](C)[C@H]2[C@H](O1)[C@H](O)[C@@]1(C)[C@@H]3CC[C@H]4C(C)(C)[C@@H](O[C@H]5CN(Cc6ncc[nH]6)CCO5)CC[C@@]45C[C@@]35CC[C@]21C)C(C)(C)O
IC50 [1]: 120 nM | inhibition [3]: 38%

CC(=O)O[C@@H]([C@H]1C[C@@H](C)C2=C(O1)[C@H](O)[C@@]1(C)[C@@H]3CC[C@H]4C(C)(C)[C@@H](O[C@@H]5OC[C@@H](O)[C@H](O)[C@H]5O)CC[C@@]45C[C@@]35CC[C@]21C)C(C)(C)O
IC50 [4]: 2700 nM | IC50 [1]: 100 nM | IC50 [5]: 61 nM | IC50 [6]: 39 nM

CC(=O)O[C@@H]([C@H]1C[C@@H](C)[C@H]2[C@H](O1)[C@H](O)[C@@]1(C)[C@@H]3CC[C@H]4C(C)(C)[C@@H](O[C@H]5CN(C6CC6)CCO5)CC[C@@]45C[C@@]35CC[C@]21C)C(C)(C)O
IC50 [1]: 1000 nM | inhibition [2]: 35%

CC(=O)O[C@@H]([C@H]1C[C@@H](C)[C@H]2[C@H](O1)[C@H](O)[C@@]1(C)[C@@H]3CC[C@H]4C(C)(C)[C@@H](O[C@H]5CN(CCN6CCCC6)CCO5)CC[C@@]45C[C@@]35CC[C@]21C)C(C)(C)O
IC50 [1]: 110 nM | inhibition [7]: 34%

CC(=O)O[C@@H]([C@H]1C[C@@H](C)[C@H]2[C@H](O1)[C@H](O)[C@@]1(C)[C@@H]3CC[C@H]4C(C)(C)[C@@H](O[C@H]5CN(C(=O)N(C)C)CCO5)CC[C@@]45C[C@@]35CC[C@]21C)C(C)(C)O
IC50 [1]: 60 nM | inhibition [2]: 40%

CC(=O)O[C@@H]([C@H]1C[C@@H](C)[C@H]2[C@H](O1)[C@H](O)[C@@]1(C)[C@@H]3CC[C@H]4C(C)(C)[C@@H](O[C@H]5CN(CCN(C)C)CCO5)CC[C@@]45C[C@@]35CC[C@]21C)C(C)(C)O
IC50 [1]: 90 nM | inhibition [7]: 29%

CC(=O)O[C@@H]([C@H]1C[C@@H](C)[C@H]2[C@H](O1)[C@H](O)[C@@]1(C)[C@@H]3CC[C@H]4C(C)(C)[C@@H](O[C@H]5CN(S(C)(=O)=O)CCO5)CC[C@@]45C[C@@]35CC[C@]21C)C(C)(C)O
IC50 [1]: 80 nM | inhibition [2]: 40%

CC(=O)O[C@@H]([C@H]1C[C@@H](C)[C@H]2[C@H](O1)[C@H](O)[C@@]1(C)[C@@H]3CC[C@H]4C(C)(C)[C@@H](O[C@@H]5OC[C@@H](O)[C@H](O)[C@H]5O)CC[C@@]45C[C@@]35CC[C@]21C)C(C)(C)O
IC50 [4]: 1000 nM | IC50 [1]: 60 nM | IC50 [5]: 84 nM

CC(=O)O[C@@H]([C@H]1C[C@@H](C)[C@H]2[C@H](O1)[C@H](O)[C@@]1(C)[C@@H]3CC[C@H]4C(C)(C)[C@@H](O[C@H]5CNCCO5)CC[C@@]45C[C@@]35CC[C@]21C)C(C)(C)O
pKa [8]: 7.7 | concentration at 24 h [9]: 31 ng/mL | concentration at 6 h [10]: 840 ng/mL | concentration at 4 h [11]: 1340 ng/g | concentration at 4 h [12]: 1140 ng/mL | AUC [13]: 3620 ng·h/mL | concentration at 8 h [14]: 2260 ng/g | Ratio IC50 [15]: > 70 | concentration at 24 h [16]: 116 ng/g | Vd [17]: 12.1 L/kg | IC50 [4]: 1400 nM | IC50 [1]: 55 nM | remaining at 1 h, 1 µM [18]: 25% | IC50 [5]: 80 nM | half-life [19]: 3 h | Kp [20]: 1.7 | bioavailability [21]: 37% | IC50 (Gamma-secretase): > 4000 nM | Ratio [22]: 25 | concentration at 6 h [23]: 1630 ng/g | concentration at 8 h [24]: 857 ng/mL | clearance [25]: 51.7 mL/min/kg | IC50 [26]: 2400 nM | half-life [27]: 6.5 h | remaining at 1 h, 1 µM [28]: 20%

CC(=O)O[C@@H]([C@H]1C[C@@H](C)[C@H]2[C@H](O1)[C@H](O)[C@@]1(C)[C@@H]3CC[C@H]4C(C)(C)[C@@H](O[C@H]5CN(Cc6ccccc6)CCO5)CC[C@@]45C[C@@]35CC[C@]21C)C(C)(C)O
IC50 [1]: 2000 nM | inhibition [3]: 4%

COCCN1CCO[C@@H](O[C@H]2CC[C@]34C[C@]35CC[C@]3(C)[C@@H]6[C@H](O[C@@H]([C@H](OC(C)=O)C(C)(C)O)C[C@H]6C)[C@H](O)[C@@]3(C)[C@@H]5CC[C@H]4C2(C)C)C1
IC50 [4]: 7600 nM | IC50 [1]: 210 nM

CC(=O)O[C@@H]([C@H]1C[C@@H](C)[C@H]2[C@H](O1)[C@H](O)[C@@]1(C)[C@@H]3CC[C@H]4C(C)(C)[C@@H](O[C@H]5CN(C(=O)c6cn(C)cn6)CCO5)CC[C@@]45C[C@@]35CC[C@]21C)C(C)(C)O
IC50 [1]: 130 nM | inhibition [2]: 44%

CC(=O)O[C@@H]([C@H]1C[C@@H](C)[C@H]2[C@H](O1)[C@H](O)[C@@]1(C)[C@@H]3CC[C@H]4C(C)(C)[C@@H](O[C@H]5CN(CCO)CCO5)CC[C@@]45C[C@@]35CC[C@]21C)C(C)(C)O
IC50 [1]: 240 nM | inhibition [3]: 46%

CC(=O)O[C@@H]([C@H]1C[C@@H](C)[C@H]2[C@H](O1)[C@H](O)[C@@]1(C)[C@@H]3CC[C@H]4C(C)(C)[C@@H](O[C@H]5CN(C6CCC6)CCO5)CC[C@@]45C[C@@]35CC[C@]21C)C(C)(C)O
IC50 [1]: 350 nM | inhibition [3]: 44%

CC(=O)O[C@@H]([C@H]1C[C@@H](C)[C@H]2[C@H](O1)[C@H](O)[C@@]1(C)[C@@H]3CC[C@H]4C(C)(C)[C@@H](O[C@H]5CN(C(=O)CC6CC6)CCO5)CC[C@@]45C[C@@]35CC[C@]21C)C(C)(C)O
IC50 [1]: 130 nM | inhibition [2]: 38%

CC(=O)O[C@@H]([C@H]1C[C@@H](C)[C@H]2[C@H](O1)[C@H](O)[C@@]1(C)[C@@H]3CC[C@H]4C(C)(C)[C@@H](O[C@H]5CN(CCC(=O)O)CCO5)CC[C@@]45C[C@@]35CC[C@]21C)C(C)(C)O
IC50 [4]: 18800 nM | IC50 [1]: 490 nM

CC(=O)O[C@@H]([C@H]1C[C@@H](C)[C@H]2[C@H](O1)[C@H](O)[C@@]1(C)[C@@H]3CC[C@H]4C(C)(C)[C@@H](O[C@H]5CN(C(=O)C6(C)COC6)CCO5)CC[C@@]45C[C@@]35CC[C@]21C)C(C)(C)O
IC50 [4]: 8000 nM | IC50 [1]: 80 nM

CC(=O)O[C@@H]([C@H]1C[C@@H](C)[C@H]2[C@H](O1)[C@H](O)[C@@]1(C)[C@@H]3CC[C@H]4C(C)(C)[C@@H](O[C@H]5CN(C6CCOCC6)CCO5)CC[C@@]45C[C@@]35CC[C@]21C)C(C)(C)O
IC50 [1]: 180 nM | inhibition [3]: 38%

CC(=O)O[C@@H]([C@H]1C[C@@H](C)[C@H]2[C@H](O1)[C@H](O)[C@@]1(C)[C@@H]3CC[C@H]4C(C)(C)[C@@H](O[C@H]5CN([C@@H]6CCNC6=O)CCO5)CC[C@@]45C[C@@]35CC[C@]21C)C(C)(C)O
IC50 [1]: 120 nM | inhibition [2]: 44%

CC(=O)O[C@@H]([C@H]1C[C@@H](C)[C@H]2[C@H](O1)[C@H](O)[C@@]1(C)[C@@H]3CC[C@H]4C(C)(C)[C@@H](O[C@H]5CN(C)CCO5)CC[C@@]45C[C@@]35CC[C@]21C)C(C)(C)O
IC50 [4]: 3400 nM | IC50 [1]: 130 nM

CC(=O)O[C@@H]([C@H]1C[C@@H](C)[C@H]2[C@H](O1)[C@H](O)[C@@]1(C)[C@@H]3CC[C@H]4C(C)(C)[C@@H](O[C@H]5CN(CC(C)(C)O)CCO5)CC[C@@]45C[C@@]35CC[C@]21C)C(C)(C)O
IC50 [4]: 9400 nM | IC50 [1]: 230 nM

CC(=O)O[C@@H]([C@H]1C[C@@H](C)[C@H]2[C@H](O1)[C@H](O)[C@@]1(C)[C@@H]3CC[C@H]4C(C)(C)[C@@H](O[C@H]5CN(CCN6CCOCC6)CCO5)CC[C@@]45C[C@@]35CC[C@]21C)C(C)(C)O
IC50 [1]: 160 nM | inhibition [3]: 49%
